Common to all, as to format: biochemical
Holding throughout (settings): 100 mM ester, 60 mM H2O2, 40 ppm enzyme, 95 mM phosphate pH 7.2, 37° C.

The target in one assay is T1, C277S (SEQ ID NO: 424) (Thermotoga maritima, UniProt Q9WXT2, C277S).
T1 construct: made in house; host or cells: E. coli

A further assay deals with T2, C277T (SEQ ID NO: 437) (Thermotoga maritima, UniProt Q9WXT2, C277T).
T2 construct: made in house; host or cells: E. coli

For assay [1], the target named is T3, C277T/R296P (SEQ ID NO: 476) (Thermotoga maritima, UniProt Q9WXT2, C277T/R296P).
T3 construct: made in house; host or cells: E. coli
Protocol: (§1) To test various enzymes against an ester substrate, it was convenient to run up to 4 reactions simultaneously by staggering the beginning of each individual reaction by 0.5-1 min. Each individual reaction was performed in a glass vessel (height: 76 mm; o.d.: 33 mm; i.d.: 24 mm) equipped with a magnetic stirring bar. Four reaction vessels were banded together and kept at constant temperature in a jacketed one-liter, stainless steel, tempering beaker (KGW IsoTherm, # TSS-G 1000W) with circulating water controlled by a Thermo NesLab recirculation bath (Model # RTE-7 Digital One). Buffer (6 mL, 100 mM sodium phosphate buffer, pH 7.2) was added to each reaction vessel and allowed to equilibrate to 37° C. The ester substrate of interest was added to achieve 100 mM concentration. […] To follow the production of peracetic acid, 80 μL samples from each reaction were removed at specific intervals from 1 to 15 minutes. The sample was immediately quenched in a microfuge filter tube (NanoSep 30K VWR cat #82031-354) containing a volume and concentration of phosphoric acid solution that was sufficient to stop the enzymatic reaction (by lowering the pH between 2 and 3) and to dilute the sample for convenient HPLC analyses. The acid-quenched samples were centrifuged for 5 minutes to remove any particulates.

For assay [2], the target named is T4, Wild Type (SEQ ID NO: 16) (Thermotoga maritima, UniProt Q9WXT2).
T4 construct: made in house; host or cells: E. coli
T4 sequence (Q9WXT2 1-325): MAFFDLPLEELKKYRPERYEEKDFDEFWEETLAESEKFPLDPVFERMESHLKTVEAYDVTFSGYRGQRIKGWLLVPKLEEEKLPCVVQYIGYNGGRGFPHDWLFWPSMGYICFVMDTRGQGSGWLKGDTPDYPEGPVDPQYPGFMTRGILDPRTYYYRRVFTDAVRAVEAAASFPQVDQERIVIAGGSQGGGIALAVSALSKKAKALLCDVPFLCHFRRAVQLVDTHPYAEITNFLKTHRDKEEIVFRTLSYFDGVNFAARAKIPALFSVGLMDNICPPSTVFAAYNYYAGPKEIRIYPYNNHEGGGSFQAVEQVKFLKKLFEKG
The assay can be described thus: Maximum peracetic acid from ester substrates with wild type perhydrolase (Example 14).
Protocol: as §1

T3 sequence (Q9WXT2 whole entry C277T/R296P): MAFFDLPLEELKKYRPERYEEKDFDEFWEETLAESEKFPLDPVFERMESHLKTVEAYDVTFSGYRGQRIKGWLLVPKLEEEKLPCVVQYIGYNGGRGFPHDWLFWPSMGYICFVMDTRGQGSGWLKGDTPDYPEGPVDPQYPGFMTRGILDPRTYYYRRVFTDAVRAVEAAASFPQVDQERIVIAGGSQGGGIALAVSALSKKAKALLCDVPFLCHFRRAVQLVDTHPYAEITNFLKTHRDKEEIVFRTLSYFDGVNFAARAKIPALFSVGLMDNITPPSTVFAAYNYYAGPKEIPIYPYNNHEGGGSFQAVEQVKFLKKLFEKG
T1 sequence (Q9WXT2 whole entry C277S): as the sequence (Q9WXT2 whole entry C277T/R296P) above, with T277S, P296R counted along it
T2 sequence (Q9WXT2 whole entry C277T): as the sequence (Q9WXT2 whole entry C277T/R296P) above, with P296R counted along it

As to `CC(=O)OC1OC[C@@H](OC(C)=O)[C@@H](OC(C)=O)[C@H]1OC(C)=O` (stereo partly shown) [1,2,3,4-tetra-O-acetyl-ribopyranose], on C277S (SEQ ID NO: 424), the “Maximum Peracetic Acid (PAA) (ppm), C277S (SEQ ID NO: 424)” value was 3525 ppm. Also, the “Maximum Peracetic Acid (PAA) (ppm), C277T (SEQ ID NO: 437)” value on C277T (SEQ ID NO: 437) stood at 3361 ppm. For the same molecule, the “Maximum Peracetic Acid (PAA) (ppm), C277T/R296P (SEQ ID NO: 476)” value (from here on “Maximum Peracetic Acid … (SEQ ID NO: 476)”) in assay [1] amounted to 3503 ppm. For the same molecule, in assay [2], the “Maximum Peracetic Acid (PAA) (ppm), Wild Type (SEQ ID NO: 16)” value (“Maximum Peracetic Acid … (SEQ ID NO: 16)” below) was determined as 2278 ppm.

With `CC(=O)OC[C@H]1OC(OC(C)=O)[C@H](OC(C)=O)[C@@H]1OC(C)=O` (stereo partly shown) [1,2,3,5-tetra-O-acetyl-ribofuranose], the “Maximum Peracetic Acid (PAA) (ppm), C277S (SEQ ID NO: 424)” value at C277S (SEQ ID NO: 424) was determined as 3397 ppm. The “Maximum Peracetic Acid (PAA) (ppm), C277T (SEQ ID NO: 437)” value at C277T (SEQ ID NO: 437) is recorded as 3472 ppm. In addition, in assay [1], the “Maximum Peracetic Acid … (SEQ ID NO: 476)” value is on record as 3270 ppm. Besides, the “Maximum Peracetic Acid … (SEQ ID NO: 16)” value in assay [2] was found to be 2828 ppm.

Regarding `CC(=O)OC[C@H]1OC(OC(C)=O)[C@@H](O)[C@@H](OC(C)=O)[C@@H]1OC(C)=O` (stereo partly shown) [1,3,4,6-tetra-O-acetyl-mannopyranose], the “Maximum Peracetic Acid (PAA) (ppm), C277S (SEQ ID NO: 424)” value on C277S (SEQ ID NO: 424) was determined as 3593 ppm. On C277T (SEQ ID NO: 437), the “Maximum Peracetic Acid (PAA) (ppm), C277T (SEQ ID NO: 437)” value is 3436 ppm. Also, the “Maximum Peracetic Acid … (SEQ ID NO: 16)” value in assay [2] came out at 2361 ppm.

Regarding `CC(=O)OCCCCCOC(C)=O` [1,5-pentanediol diacetate], the “Maximum Peracetic Acid (PAA) (ppm), C277S (SEQ ID NO: 424)” value at C277S (SEQ ID NO: 424) stood at 335 ppm. Further, the “Maximum Peracetic Acid (PAA) (ppm), C277T (SEQ ID NO: 437)” value on C277T (SEQ ID NO: 437) turned out to be 484 ppm. For the same molecule, the “Maximum Peracetic Acid … (SEQ ID NO: 476)” value in assay [1] is on record as 364 ppm. Further, the “Maximum Peracetic Acid … (SEQ ID NO: 16)” value in assay [2] worked out at 435 ppm.

As for `CC(=O)OC[C@H]1O[C@@H](S)[C@H](OC(C)=O)[C@@H](OC(C)=O)[C@@H]1OC(C)=O` [1-thio-β-D glucose-2,3,4,6-tetraacetate], the “Maximum Peracetic Acid (PAA) (ppm), C277S (SEQ ID NO: 424)” value at C277S (SEQ ID NO: 424) came out at 0 ppm. In addition, the “Maximum Peracetic Acid (PAA) (ppm), C277T (SEQ ID NO: 437)” value at C277T (SEQ ID NO: 437) is 171 ppm. For the same molecule, in assay [1], the “Maximum Peracetic Acid … (SEQ ID NO: 476)” value stood at 147 ppm. Also, the “Maximum Peracetic Acid … (SEQ ID NO: 16)” value in assay [2] was determined as 156 ppm.

`CC(=O)N[C@@H]1[C@@H](OC(C)=O)[C@H](OC(C)=O)[C@@H](COC(C)=O)O[C@@H]1Cl` [2-acetamido-2-deoxy-3,4,6 triacetyl-1-chloride-α-D-glucopyranose]: on C277S (SEQ ID NO: 424), the “Maximum Peracetic Acid (PAA) (ppm), C277S (SEQ ID NO: 424)” value was determined as 863 ppm. Also, the “Maximum Peracetic Acid (PAA) (ppm), C277T (SEQ ID NO: 437)” value at C277T (SEQ ID NO: 437) is recorded as 899 ppm. For the same molecule, the “Maximum Peracetic Acid … (SEQ ID NO: 476)” value in assay [1] amounted to 876 ppm. In assay [2], the “Maximum Peracetic Acid … (SEQ ID NO: 16)” value was found to be 548 ppm.

`C=CC(COC(C)=O)OC(C)=O` (stereo not shown) [3,4-diacetoxy-1-butene]: the “Maximum Peracetic Acid (PAA) (ppm), C277S (SEQ ID NO: 424)” value on C277S (SEQ ID NO: 424) was found to be 2281 ppm. Also, the “Maximum Peracetic Acid (PAA) (ppm), C277T (SEQ ID NO: 437)” value on C277T (SEQ ID NO: 437) amounted to 2285 ppm. The “Maximum Peracetic Acid … (SEQ ID NO: 476)” value in assay [1] was determined as 2478 ppm. Moreover, in assay [2], the “Maximum Peracetic Acid … (SEQ ID NO: 16)” value came to 1692 ppm.

Consider `CC(=O)Oc1ccc(C(=O)O)cc1` [4-acetoxybenzoic acid], for which, at C277S (SEQ ID NO: 424), the “Maximum Peracetic Acid (PAA) (ppm), C277S (SEQ ID NO: 424)” value amounted to 604 ppm. Further, on C277T (SEQ ID NO: 437), the “Maximum Peracetic Acid (PAA) (ppm), C277T (SEQ ID NO: 437)” value turned out to be 426 ppm. For the same molecule, in assay [1], the “Maximum Peracetic Acid … (SEQ ID NO: 476)” value was determined as 485 ppm. Besides, the “Maximum Peracetic Acid … (SEQ ID NO: 16)” value in assay [2] turned out to be 398 ppm.

These data come from patent publication US8663616B2, “Enzymatic peracid generation for use in oral care products” (E I du Pont de Nemours and Company, priority 2010, dated 2014).
